Measurements from patent publication US20250134870A1, “PATHWAY MODULATOR, PHARMACEUTICAL COMPOSITION HAVING SAME, USE THEREOF, AND THERAPEUTIC METHOD USING SAME” (Jiangsu Yahong Meditech Co., Ltd., priority 2021, published 2025).

Columns and labels:
[1] = Body weight and spleen weight in IMQ-induced psoriasis mice (Example 8); format: in vivo, Balb/c mice; details: 2 mg/kg topical QD × 7 days (G4)
Excerpt: 4) Spleen samples were collected and weighed (FIG. 23).
Body weight was monitored daily throughout the study. Continuous use of IMQ cream could reduce the mean body weight of the solvent group. […] However, there was no statistically significant difference between the treatment and solvent groups (FIG. 21)

[2] = test system: imiquimod (IMQ)-induced psoriasis; assay: Imiquimod (IMQ)-induced psoriasis in mice: erythema, scales, thickness, total score, AUC (Example 8); format: in vivo, Balb/c mice; design: key to erythema score / scales score / thickness score: 0 = none, 1 = mild, 2 = moderate, 3 = obvious/severe; key to total score of erythema + scales + thickness: sum of three 0-3 scores (erythema + scales + thickening), 0-9; details: for erythema score / scales score: 2 mg/kg topical QD; for thickness score / total score of erythema + scales + thickness: positive control group
Protocol: All mice were shaved with a pet shaver to get an area of 2×3 cm on the back one day before the start of the experiment.
65 animals were randomly divided into groups according to body weight, and the dosing regimen was as follows.
Imiquimod (IMQ) cream: 62.5 mg of IMQ cream for each mouse in G2 to G7; Dexamethasone (DEX) ointment: 70 mg of ointment for each mouse in G4;
Tofacitinib: Tofacitinib was dissolved in dimethyl sulfoxide to 5 mg/mL, and 50 μL was added to IMQ cream for daily treatment.
Mice in Groups 2 to 7 received daily topical doses of 62.5 mg of IMQ cream on their shaved back from Day 0 to Day 7.
Dosing of the test compounds and reference substance was carried out according to Table 29 for 7 consecutive days.
To assess the severity of inflammation of skin on the back, the skin on the back was scored according to Table 30. Erythema, scales and thickening were scored independently on a scale of 0 to 3, 0, none; 1. mild; 2. moderate; 3. obvious/severe.
The inhibition rate was calculated according to the following formula: Inhibition rate=[AUC (solvent)−AUC (treatment)]/AUC (solvent)×100%. Wherein, solvent referred to the solvent group corresponding to the route of administration.

[3] = test system: IRBP R16-induced experimental autoimmune uveoretinitis (EAU); assay: Bovine IRBP R16-induced experimental autoimmune uveoretinitis (EAU): clinical score, AUC, incidence (Example 6); format: in vivo, Lewis rats; details: for Incidence rate (%): 0.4 mg/kg PO QD
Protocol: On Day-1 (i.e., the day before immunization, hereinafter), 60 rats were randomly divided into 6 groups (n=10) based on body weight (see Table 18). On Day 0, rats in Groups 2 to 6 were anesthetized with isoflurane, followed by subcutaneous injection of a total of […] of emulsion resulting from IRBP R16 and CFA emulsified at a 1:1 v/v ratio, on both thighs (50 μL at each site) and tail head (100 μL), respectively.
From Day 0 after immunization, the eyes of rats were checked daily with a flashlight by gently opening the upper and lower eyelids of the test rats, and the incidence of disease was recorded. Clinical symptoms were scored in a blind manner from the onset of disease to the end of the study according to the criteria listed in Table 17.
(§1) Dosing started from Day 0 accurately according to the animal body weight for a total of 16 days.
The results were expressed as “mean±standard error”. Graphpad Prism or SPSS was used for statistical analysis, and p<0.05 was considered statistically significant.

[4] = Body weight and weight change rate of EAU rats (Example 6); format: in vivo, Lewis rats; details: 0.4 mg/kg PO QD
Excerpt: Wherein, Day 0 referred to the day of immunization. The body weight of each rat was monitored twice a week after immunization.
as §1

C[C@@H]1C[C@H]2[C@@H]3CCC4=CC(=O)C=C[C@]4(C)[C@@]3(F)[C@@H](O)C[C@]2(C)[C@@]1(O)C(=O)CO [Dexamethasone]
body weight (weight loss) [1]: weight loss was more dramatic | erythema score ([2]; Day 0): 0 | scales score ([2]; Day 0): 0 | thickness score ([2]; Day 0): 0 | total score of erythema + scales + thickness ([2]; Day 0): 0 | erythema score ([2]; Day 1): 0 | scales score ([2]; Day 1): 0 | thickness score ([2]; Day 1): 0 | total score of erythema + scales + thickness ([2]; Day 1): 0 | erythema score ([2]; Day 2): 0 | scales score ([2]; Day 2): 0 | thickness score ([2]; Day 2): 0 | total score of erythema + scales + thickness ([2]; Day 2): 0 | erythema score ([2]; Day 3): 0.2 | scales score ([2]; Day 3): 0 | thickness score ([2]; Day 3): 0 | total score of erythema + scales + thickness ([2]; Day 3): 0 | erythema score ([2]; Day 4): 0.1 | scales score ([2]; Day 4): 0.2 | thickness score ([2]; Day 4): 0 | total score of erythema + scales + thickness ([2]; Day 4): 0.3 | erythema score ([2]; Day 5): 0.1 | scales score ([2]; Day 5): 0.2 | thickness score ([2]; Day 5): 0 | total score of erythema + scales + thickness ([2]; Day 5): 0.3 | erythema score ([2]; Day 6): 0 | scales score ([2]; Day 6): 0.2 | thickness score ([2]; Day 6): 0 | total score of erythema + scales + thickness ([2]; Day 6): 0.2 | erythema score ([2]; Day 7): 0 | scales score ([2]; Day 7): 0.1 | thickness score ([2]; Day 7): 0 | total score of erythema + scales + thickness ([2]; Day 7): 0.1 | inhibition at 2 mg/kg ([2]; Mus musculus, 168 h, 2 mg/kg topical QD × 7 days, vs corresponding solvent group, read-out: inhibition rate (AUC of total clinical score)): 97% | Area under the curve (AUC) of clinical score ([3]; 0.4 mg/kg PO QD × 16 days): 7.68 | Incidence rate (%) ([3]; Day 0): 0% | Incidence rate (%) ([3]; Day 1): 0% | Incidence rate (%) ([3]; Day 2): 0% | Incidence rate (%) ([3]; Day 3): 0% | Incidence rate (%) ([3]; Day 4): 0% | Incidence rate (%) ([3]; Day 5): 0% | Incidence rate (%) ([3]; Day 6): 0% | Incidence rate (%) ([3]; Day 7): 10% | Incidence rate (%) ([3]; Day 8): 20% | Incidence rate (%) ([3]; Day 9): 100% | Incidence rate (%) ([3]; Day 10): 100% | Incidence rate (%) ([3]; Day 11): 90% | Incidence rate (%) ([3]; Day 12): 90% | Incidence rate (%) ([3]; Day 13): 90% | Incidence rate (%) ([3]; Day 14): 90% | Incidence rate (%) ([3]; Day 15): 90% | Incidence rate (%) ([3]; Day 16): 90% | Incidence rate (%) ([3]; Day −1): 0% | inhibition at 0.4 mg/kg ([3]; Rattus norvegicus, 384 h, 0.4 mg/kg PO QD × 16 days, vs model control, read-out: Inhibition rate of clinical score AUC): 84.5% | Rat body weight ([4]; Day 2): 174.65 g | Weight change rate (%) ([4]; Day 2): −7.26% | Rat body weight ([4]; Day 6): 166.65 g | Weight change rate (%) ([4]; Day 6): −11.53% | Rat body weight ([4]; Day 9): 164.05 g | Weight change rate (%) ([4]; Day 9): −12.92% | Rat body weight ([4]; Day 13): 162.10 g | Weight change rate (%) ([4]; Day 13): −13.99% | Rat body weight ([4]; Day 16): 161.29 g | Weight change rate (%) ([4]; Day 16): −14.44% | Rat body weight ([4]; Day −1): 188.46 g | Weight change rate (%) ([4]; Day −1): 0.00%
